Source: patent EP0560232A1, “Novel 7-aminolabdanes, a process for their preparation and their use as pharmaceutical agents” (HOECHST AKTIENGESELLSCHAFT, priority 1992, dated 1993)

Experiments:
Isolated Rat Portal Vein = assay: Potassium channel opening activity, isolated rat portal vein model (KCl-induced contractions); settings: Dose 10^-6 Mol, 5 min incubation, n=5, mean + SEM, vehicle D.W. or DMSO; for Percent Inhibition Activity KCl20 mM: reduction of KCl 20 mM induced contraction; for Percent Inhibition Activity KCl80 mM: reduction of KCl 80 mM induced contraction
Protocol: Potassium channel opening activity: - Isolated Rat Portal Vein model.
Normal male albino rats of the Charles Foster strain of weight range 200 to 250 g were used.
After sacrificing the animal, abdomen was opened and portal vein was isolated and mounted in an organ bath containing Kerb's solution. The bath was maintained at 37°C and aerated with 95 vol.% oxygen and 5 vol.% carbon dioxide gas mixture. The tissue was kept under 0.5 to 1 g tension and allowed to stabilise for about 30 minutes. KCl₂₀ and KCl₈₀ mM induced cumulative concentrations were measured-through Hugo Sachs Force displacement transducer (K-30) and recorded on 4 channel digital recorder. After taking 2 control responses, the tissue was incubated with test substance for 5 minutes and dose response was repeated. The percent reduction in KCl₂₀ and KCl₈₀ mM induced contractions were calculated from the control values. Standard potassium channel opener selectively blocks the KCl₂₀ induced contractions without affecting the KCl₈₀ mM induced responses. […] The test compounds were administered in a volume of 0.2 ml per concentration. All results are expressed as mean + SEM.

Hypovolemic rats = assay: Blood pressure lowering activity in hypovolemic rats; type: in vivo; settings: for Blood pressure (mm Hg) Initial: before drug
Protocol: Hypovolemic rats were used for this activity. Hypovolemic rats were prepared by the administration of 100 mg/kg furosemide intra peritoneally 1 hour prior to the actual experiment. After administering furosemide the rats were anesthesised with 1.5 g/kg urethane given i.p. The right carotid artery was cannulated and blood pressure was mentioned on a physiological recorder by connecting the carotial cannula to a pressure transducer. The left jugular vein was cannulated for i.v. administration of test substances - intra duodenal (i.d.) administration is made by exposing a portion of the duodenum through a small incision made in the abdomen below the sternum. Blood pressure was monitored for 10 minutes in case of i.v. administration and for 90 to 120 minutes when the drug was administered by the i.d. route.

Row | Structure (SMILES) | Percent Inhibition Activity KCl20 mM (Isolated Rat Portal Vein) | Percent Inhibition Activity KCl80 mM (Isolated Rat Portal Vein) | Blood pressure % change (Hypovolemic rats; 10 mg/kg i.v.) [%] | Blood pressure (mm Hg) Post drug (Hypovolemic rats; 10 mg/kg i.v.) [mm Hg] | Blood pressure duration (Hypovolemic rats; 10 mg/kg i.v.) [min] | Blood pressure (mm Hg) Initial (Hypovolemic rats; group dosed 10 mg/kg i.v.) [mm Hg] | Blood pressure % change (Hypovolemic rats; 30 mg/kg i.d.) [%] | Blood pressure (mm Hg) Post drug (Hypovolemic rats; 30 mg/kg i.d.) [mm Hg] | Blood pressure duration (Hypovolemic rats; 30 mg/kg i.d.) [min] | Blood pressure (mm Hg) Initial (Hypovolemic rats; group dosed 30 mg/kg i.d.) [mm Hg]
1 | C=C[C@@]1(C)CC(=O)[C@H]2[C@](C)(O1)[C@H](N)C=C1C(C)(C)CCC[C@@]12C [(α)NH2, 7α-Amino-8,13-epoxy-labd-5,14-dien-11-one] | 57+9% | 34+9% | -20.5±3 | 68±4 | 5 | 87±9 | – | – | – | –
2 | C=C[C@@]1(C)CC(=O)[C@H]2[C@](C)(O1)[C@H](NC(C)=O)C=C1C(C)(C)CCC[C@@]12C [(α)NHCOCH3, 7α-Acetylamino-8,13-epoxy-labd-5,14-dien-11-one] | 34+10% | 5+2% | – | – | – | – | -15.4±3 | 80±4 | 30 | 94±3
3 | C=C[C@@]1(C)CC(=O)[C@@]2(O)[C@](C)(O1)[C@@H](N)C=C1C(C)(C)CC[C@H](O)[C@@]12C [(β)NH2, 7β-Amino-1α,9α-dihydroxy-8,13-epoxy-labd-5,14-dien-11-one] | – | – | – | 38±2 | >70 | 90±10 | – | – | – | –
